EP2945607B1, “COSMETIC OR DERMATOLOGICAL EMULSION COMPRISING A MEROCYANINE AND AN EMULSIFYING SYSTEM CONTAINING AN ALKALI METAL SALT OF A PHOSPHORIC ACID ESTER OF A FATTY ALCOHOL” (L'Oréal, priority 2013, dated 2014)

Assay: Color of the formulations: colorimetry of thin films on contrast map (spectro-colorimeter Minolta CM2600D), L*a*b* system
Format: physicochemical
Conditions: result in words; equivalent formulations (2 % merocyanine)
Experimental: Protocol for evaluating the color of the formulations
The color of the formulations was evaluated after preparation of thin films on contrast map. The formulations were deposited within a circle of 2.2 cm of diameter and planed to obtain thicknesses of reproducible deposit. The colorimetric measures were then made by means of a spectro-colorimeter Minolta CM2600D in two points of the film. This operation is twice reproduced, which leads to 4 experimental values by formulation.
The results are expressed in the system (L *, has *, b *) in which L* represents the luminance, a* represents the red-green axis (-a* = green, +a* = red) and b* represents the yellow-blue axis (-b* blue, +b* yellow). So, a* and b* express the shade of the compound.
The difference of color ΔE* was calculated from the variations ΔL*, Δa* et Δb* between the compound (2) and the compound MC11 with the following equation : ((ΔE*))^2 = ((ΔL*))^2 + ((Δa*))^2 + ((Δb*))^2 [formula] • ΔL* = L* formulation with compound MC11 - L* formulation with compound (2) • Δa* = a* formulation with compound MC11 - a* formulation with compound (2) • Δb* = b* formulation with compound MC11 - b* formulation with compound (2)
We consider that the difference of color between the two compounds is significant if ΔE* > 2.

- color compared with compound MC11 of WO2008/090066: significantly less yellow
SMILES: CCOCCOC(=O)/C(C#N)=C1\C=C(NCCCOC)CCC1 [Compound (2), 2-ethoxyethyl (2Z)-cyano{3-[(3-methoxypropyl)amino]cyclohex-2-en-1-ylidene}ethanoate]
